What was measured:
[1] = molecular target: mu opioid receptor (Homo sapiens, UniProt P35372); test: opioid receptor binding assay (Ki), mu
[2] = molecular target: kappa opioid receptor (Homo sapiens, UniProt P41145); test: opioid receptor binding assay (Ki), kappa
[3] = molecular target: delta opioid receptor (Homo sapiens, UniProt P41143); test: opioid receptor binding assay (Ki), delta
[4] = molecular target: T1, cloned human mu opioid receptor (Homo sapiens, UniProt P35372); test: GTP-γ-S binding assay, antagonist potency (Kb), mu; type: biochemical; conditions: functional antagonist potency vs DAMGO 1 micromolar; Cheng-Prusoff
T1 construct: expressed in transfected cells
Description: (§1) The functional antagonist potency (Kb) of the sample compounds was determined using the GTPγS binding assay. GTPgS-based functional assays provide an in vitro measure of the activity of opioid agonists and antagonists. Opioid reference compounds or test compound are incubated with membrane homogenate from cells expressing the cloned human mu, kappa or delta opioid receptor and radiolabeled [35S]GTPgS. If the compound activates the opioid receptor, an increase in the binding of radiolabeled GTPgS is observed. […] These tests provide an in vitro measurement of the activity of the compound at human opioid receptors.
(§2) An SPA-based GTP-γ-S assay format was developed based on previous opioid (Emmerson et al., J. Pharm Exp Ther 278,1121,1996; Horng et al., Society for Neuroscience Abstracts, 434.6, 2000) and muscarinic (DeLapp et al., JPET 289, 946, 1999) assay formats. Membranes were resuspended in 20 mM HEPES, 100 mM NaCl, 5 mM MgCl2, 1 mM DTT, and 1 mM EDTA. Fifty (50) […] of GTP-γ-[35S], compound, membrane suspension (20 microgram/well), and wheat germ agglutinin coated SPA beads (1 mg/well) were added to clear bottom 96 well assay plates. GDP ([…]) was added to the membrane solution prior to addition to the assay plates. Plates were sealed and incubated for four hours at room temperature then placed in a refrigerator overnight to allow the beads to settle. Signal stability at 4° C. was determined to be >60 hours. Plates were warmed to room temperature and counted in a Wallac Microbeta scintillation counter. For antagonist assays, specific agonists were added at the following concentrations: (MOR) DAMGO 1 micromolar, (DOR) DPDPE 30 nM, (KOR) U69593 300 nM. Kb's were determined by Cheng-Prusoff equation (see Cheng and Prusoff, Biochem. Pharmacol. 22, 3099, 1973).

[5] = molecular target: T2, cloned human delta opioid receptor (Homo sapiens, UniProt P41143); test: GTP-γ-S binding assay, antagonist potency (Kb), delta; type: biochemical; conditions: functional antagonist potency vs DPDPE 30 nM; Cheng-Prusoff
T2 construct: expressed in transfected cells
Description: as §1, §2

[6] = molecular target: T3, cloned human kappa opioid receptor (Homo sapiens, UniProt P41145); test: GTP-γ-S binding assay, antagonist potency (Kb), kappa; type: biochemical; conditions: functional antagonist potency vs U69593 300 nM; Cheng-Prusoff
T3 construct: expressed in transfected cells
Description: as §1, §2

Sequence of kappa opioid receptor (P41145 whole entry): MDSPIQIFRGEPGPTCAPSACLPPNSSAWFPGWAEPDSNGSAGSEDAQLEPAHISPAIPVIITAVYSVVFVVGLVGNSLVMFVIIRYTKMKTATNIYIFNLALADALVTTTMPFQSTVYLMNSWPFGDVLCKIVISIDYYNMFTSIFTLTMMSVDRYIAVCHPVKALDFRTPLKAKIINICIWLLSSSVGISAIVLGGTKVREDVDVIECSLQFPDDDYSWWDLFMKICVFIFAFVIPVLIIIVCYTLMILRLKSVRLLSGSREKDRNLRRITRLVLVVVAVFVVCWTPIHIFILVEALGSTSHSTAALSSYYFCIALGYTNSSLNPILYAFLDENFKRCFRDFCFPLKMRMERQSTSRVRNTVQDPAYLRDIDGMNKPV
T3 sequence (P41145 whole entry): as above
T1 sequence (P35372 whole entry): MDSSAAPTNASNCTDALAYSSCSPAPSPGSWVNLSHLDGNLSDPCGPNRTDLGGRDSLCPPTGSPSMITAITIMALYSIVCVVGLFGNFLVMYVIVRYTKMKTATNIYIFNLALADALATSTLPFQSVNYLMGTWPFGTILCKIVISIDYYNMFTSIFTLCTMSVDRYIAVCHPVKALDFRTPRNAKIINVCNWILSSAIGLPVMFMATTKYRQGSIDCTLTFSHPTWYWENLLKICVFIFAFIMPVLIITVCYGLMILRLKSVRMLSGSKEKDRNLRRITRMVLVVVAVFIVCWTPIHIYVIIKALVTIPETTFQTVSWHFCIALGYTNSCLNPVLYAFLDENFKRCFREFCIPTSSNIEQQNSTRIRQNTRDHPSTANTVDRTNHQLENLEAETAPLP
Sequence of mu opioid receptor (P35372 whole entry): as above
Sequence of delta opioid receptor (P41143 whole entry): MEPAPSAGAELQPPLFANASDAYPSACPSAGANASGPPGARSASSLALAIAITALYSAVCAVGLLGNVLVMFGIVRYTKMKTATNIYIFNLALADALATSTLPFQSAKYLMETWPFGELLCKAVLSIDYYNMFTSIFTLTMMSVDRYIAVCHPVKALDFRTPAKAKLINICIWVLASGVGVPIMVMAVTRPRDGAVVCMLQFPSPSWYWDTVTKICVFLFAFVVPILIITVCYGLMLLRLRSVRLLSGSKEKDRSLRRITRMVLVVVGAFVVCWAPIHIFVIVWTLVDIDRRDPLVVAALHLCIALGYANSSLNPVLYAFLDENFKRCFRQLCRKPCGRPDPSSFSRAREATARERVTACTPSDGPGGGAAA
T2 sequence (P41143 whole entry): as above

Row | Compound | Ki [1] [nM] | Ki [2] [nM] | Ki [3] [nM] | Kb [4] [nM] | Kb [5] [nM] | Kb [6] [nM]
1 | NC(=O)c1ccc(Cn2ccc3cc(CNCCCc4ccccc4)ccc32)cc1 [Example 8, 4-{5-[(3-Phenyl-propylamino)-methyl]-indol-1-ylmethyl}-benzamide] | 59.3 | 304 | 633 | – | – | –
2 | NC(=O)c1ccc(Cn2ccc3cc(CNCCO)ccc32)cc1 [Example 10, 4-{5-[(2-Hydroxy-ethylamino)-methyl]-indol-1-ylmethyl}-benzamide] | 478 | 3190 | > 5000 | – | – | –
3 | NC(=O)c1ccc(CN2CCc3cc(CNCCc4cccs4)ccc32)cc1 [Example 4, 4-{5-[(2-Thiophen-2-yl-ethylamino)-methyl]-2,3-dihydro-indol-1-ylmethyl}-benzamide] | 13.4 | 226 | 111 | 2.1 | 19.2 | > 42
4 | CC(C)CCNCc1ccc2c(c1)CCN2Cc1ccc(C(N)=O)cc1 [Example 5, 4-{5-[(3-Methyl-butylamino)-methyl]-2,3-dihydro-indol-1-ylmethyl}-benzamide] | 24.5 | 387 | 259 | 3.3 | 24.3 | > 42
5 | NC(=O)c1ccc(Cn2ccc3cc(CNCCc4ccccc4F)ccc32)cc1 [Example 9, 4-(5-{[2-(2-Fluoro-phenyl)-ethylamino]-methyl}-indol-1-ylmethyl)-benzamide] | 20.8 | 332 | 144 | 6.2 | 20.7 | > 35
6 | COc1ccc(CCNCc2ccc3c(ccn3Cc3ccc(C(N)=O)cc3)c2)cc1 [Example 11, 4-(5-{[2-(4-Methoxy-phenyl)-ethylamino]-methyl}-indol-1-ylmethyl)-benzamide] | 319 | 1110 | 2550 | 8.4 | > 50 | > 42
7 | CCCCCCNCc1ccc2c(ccn2Cc2ccc(C(N)=O)cc2)c1 [Example 7, 4-(5-Hexylaminomethyl-indol-1-ylmethyl)-benzamide] | 22.1 | 345 | 176 | 5.8 | 27.4 | > 35
8 | CC(C)CCNCc1ccc2c(ccn2Cc2ccc(C(N)=O)cc2)c1 [Example 1, 4-{5-[(3-Methyl-butylamino)-methyl]-indol-1-ylmethyl}-benzamide] | 18.1 | 362 | 170 | 4.2 | 21.7 | 59.9
9 | CC(C)(C)CCNCc1ccc2c(ccn2Cc2ccc(C(N)=O)cc2)c1 [Example 3, 4-{5-[(3,3-Dimethyl-butylamino)-methyl]-indol-1-ylmethyl}-benzamide] | 15.6 | 106 | 98.2 | 4.4 | 19.2 | 50.5
10 | NC(=O)c1ccc(Cn2ccc3cc(CNCCc4cccs4)ccc32)cc1 [Example 2, 4-{5-[(2-Thiophen-2-yl-ethylamino)-methyl]-indol-1-ylmethyl}-benzamide] | 21.3 | 411 | 154 | 2 | 15 | 50.1
11 | CC(C)(C)CCNCc1ccc2c(c1)CCN2Cc1ccc(C(N)=O)cc1 [Example 6, 4-{5-[(3,3-Dimethyl-butylamino)-methyl]-2,3-dihydro-indol-1-ylmethyl}-benzamide] | 20.5 | 340 | 193 | 4 | 20.3 | 21.4
